Experimental data taken from article PMC4811302, “Human β-defensin 3 contains an oncolytic motif that binds PI(4,5)P2 to mediate tumour cell permeabilisation” (Oncotarget, 2015).
Where no end group is shown, it is not given here.

How the values were obtained:
[1] = Protein-lipid overlay assay, PIP strip; format: binding; details: 1 μg/mL protein, immunodetection, densitometry
Method: Protein-lipid overlay assays using Membrane strip™ or PIP strip™ (Echelon Biosciences, Salt Lake City, UT) were performed using 1 μg/mL proteins as described previously. Lipid binding was immunodetected using a combination of rabbit anti-HBD-3 IgG (50 μg/mL) and horseradish peroxidase-conjugated donkey-anti-rabbit Ig (10 μg/mL) antibodies. Chemiluminescence signal intensity was quantitated by densitometry analysis using ImageJ (National Institutes of Health, Bethesda, MD; http://imagej.nih.gov/ij/).

U937 and HeLa cells = experiment: Cell viability assay, mutants compared to wild-type; format: cell-based, human; details: cell viability assays, 48 h
Method: (§1) Different concentrations of HBD-3 were added to cells seeded in 96-well plates in appropriate complete medium. Initial plating cell density was pre-optimised to avoid confluence at endpoint. After 48 h, cell viability was determined using 3-(4,5-dimethylthiazol-2-yl)-2,5-diphenyltetrazolium bromide (MTT) (Sigma-Aldrich, MO) for adherent cells (HeLa, PC3, HUVEC, AHDF, CASMC) or 3-(4,5-dimethylthiazol-2-yl)-5-(3-carboxymethoxyphenyl)-2-(4-sulfophenyl)-2H-tetrazolium (MTS) (Promega, Madison, WI) coupled with phenzine methosulfate (PMS) (Promega) for suspension cells (U937, HL-60, Jurkat) prior to absorbance measurement at 570 nm and […], respectively. Absorbance readings of untreated control wells was designated as 100% cell viability.

[2] = ATP-encapsulated liposome leakage assay, PC:PI(4,5)P2; details: 15 μM defensin
Method: Liposomes were generated as described previously using natural PI(4,5)P2 (porcine brain, in chloroform:methanol:water at 20:9:1 molar ratio) and PC (chicken egg, in chloroform) purchased from Avanti Polar Lipids. PC only or PC:PI(4,5)P2 (95:5 molar ratio) solutions were dried under a stream of nitrogen gas followed by overnight vacuum-drying. The lipid films were rehydrated to a final concentration of 5 mg/mL in 20 mM HEPES (pH 7.2) containing 5 mg/mL adenosine-5-triphosphate disodium salt (ATP; Sigma-Aldrich) at 37°C for 1 h. After three subsequent cycles of freezing (liquid nitrogen) and thawing (25°C), multilamellar liposomes were extruded 15–20 times through a mini-extruder (Avanti Polar Lipids). Free ATP was removed by three centrifugal washes with 20 mM HEPES at 16,500 g prior to the ATP release assay. Liposomes treated with 1% Triton X-100 were included as positive control and assigned as total lysis, whereas HEPES only control served as background reading. The level of ATP release at a particular time point was determined by quotient of the corrected reading (after subtracting background) of the sample at that time point and corrected reading of total lysis, as per the following equation: % Lysist=Samplet−HEPESt/Triton X−HEPES×100

HeLa cells = experiment: Tetrazolium-coupled cell viability assay, HBD-3 and mutants, HeLa; format: cell-based, human; details: 48 h
Method: as §1

[3] = test system: plasma membrane PI(4,5)P2 of U937 cells; experiment: Anti-PI(4,5)P2 antibody blocking assay; format: cell-based, human; details: 15 μM defensins 30 min or 10 mM neomycin 3 h; cells fixed, saponin-lysed, FITC-conjugated anti-PI(4,5)P2 IgM, flow cytometry
Method: U937 cells at 1×10^6 cells/mL were treated with 10 mM neomycin for 3 h and/or 15 μM defensins for 30 min in serum-free RPMI 1640 medium containing 0.1% BSA, followed by 20 min fixation with 2% (v/w) paraformaldehyde (Sigma-Aldrich), 10 min lysis with 0.5% (w/v) saponin (Sigma-Aldrich), and then 30 min blocking with 3% (w/v) BSA. Three 5-min centrifugal washes with PBS at 500 g were also included between steps. FITC-conjugated mouse anti-PI(4,5)P2 IgM (Echelon Biosciences) or IgM control (GeneTex, Irvine, CA) was subsequently used at 10 μg/mL for 30 min prior to flow cytometry analysis.

U937 cells [4] = experiment: Tetrazolium-coupled cell viability assay, HBD-3 and mutants, U937; format: cell-based, human; details: 48 h
Method: as §1

U937 cells [5] = experiment: Lipid inhibition of HBD-3 mediated PI uptake; format: cell-based, human; details: 15 μM HBD-3 pre-incubated with 50 μM synthetic lipid, flow cytometry, three independent experiments
Method: (§2) Cells suspended at 1×10^6 cells/mL in serum-free medium containing 0.1% (w/v) bovine serum albumin (BSA) (Sigma-Aldrich) were treated with HBD-3 at 37°C for 30 min. Nucleic acid stain propidium iodide (PI) was then added to a final concentration of 1 μg/mL and cells subjected to flow cytometry analysis using BD FACSCanto II Flow Cytometer and BD FACSDiva Software v6.1.1 (BD Biosciences, San Jose, CA). For each flow cytometry reading, 10,000 cells, gated appropriately based on forward scattering and side scattering, were recorded. The resultant data were processed using FlowJo software (Tree Star, San Carlos, CA) to determine PI-positivity, which reflects the level of membrane permeabilisation. For lipid inhibition assays, 15 μM HBD-3 was pre-incubated with 50 μM synthetic lipids, including L-α-phosphatidic acid (PA), L-α-phosphatidylcholine (PC), L-α-phosphatidylethanolamine (PE), L-α-phosphatidylserine (PS), L-α-phosphatidylinositol-4-phosphate (PI(4)P), L-α-phosphatidylinositol-3,5-bisphosphate (PI(3,5)P2), L-α-phosphatidylinositol-4,5-bisphosphate (PI(4,5)P2) and L-α-phosphatidylinositol-3,4,5-trisphosphate (PI(3,4,5)P)3. All lipids were sourced from Avanti Polar Lipids, Alabaster, AL. For neomycin inhibition experiments, U937 cells at 1×10^6 cells/mL were pre-treated with 10 mM neomycin (Sigma-Aldrich), followed by three centrifugal washes with phosphate buffered saline (PBS) at 500 g for 5 min.

U937 cells [6] = experiment: Neomycin inhibition of membrane permeabilisation (PI uptake); format: cell-based, human; details: cells pre-treated with 10 mM neomycin, PI uptake by flow cytometry; effect overcome at higher HBD-3 concentrations
Method: as §2, with “For neomycin inhibition experiments, U937 cells at 1×10^6 cells/mL were pre-treated with 10 mM neomycin (Sigma-Aldrich), followed by three centrifugal washes with phosphate buffered saline (PBS) at 500 g for 5 min.” left out

tumour cells = details: in vitro; ref [11]; cited from earlier work
From the text: The underlying mechanism was described to involve the entry of NaD1 into the cell followed by binding to PI(4,5)P2, leading to membrane permeabilisation, membrane blebbing and eventually to cell lysis.

## HBD-3(K32A): alanine mutant of HBD-3 at K32, recombinantly expressed in P. pastoris (GIINTLQKYYCRVRGGRCAVLSCLPKEEQIGACSTRGRKCCRRKK; ends and bridges not checked; cysteine pairing not given here; UniProt P81534 23-67, looked up, variant K32A)
[1]
  binding to PA on PIP strip compared to wild-type HBD-3: substantially retained
  binding to phosphoinositides/lipids on PIP strip: much lower levels
U937 and HeLa cells
  tumour cell cytotoxicity compared to wild-type HBD-3: reduced tumour cell cytotoxicity
[2]
  ability to induce ATP release from ATP-encapsulated liposomes compared to wild-type HBD-3: impaired

## HBD-3(K39A): alanine mutant of HBD-3 at K39, recombinantly expressed in P. pastoris (GIINTLQKYYCRVRGGRCAVLSCLPKEEQIGKCSTRGRACCRRKK; UniProt P81534 23-67, looked up, variant K39A)
[1]
  binding to PA on PIP strip compared to wild-type HBD-3: maintaining binding to PA
  binding to phosphoinositides/lipids on PIP strip: pronounced loss of PIP binding
HeLa cells
  fold higher IC50 compared to wild-type HBD-3: two-fold
U937 and HeLa cells
  tumour cell cytotoxicity compared to wild-type HBD-3: reduced tumour cell cytotoxicity
[2]
  ability to induce ATP release from ATP-encapsulated liposomes compared to wild-type HBD-3: impaired
[3]
  blocking of anti-PI(4,5)P2 antibody binding (overall fluorescence intensity vs untreated control): essentially the same as that of the untreated control
U937 cells [4]
  fold higher IC50 compared to wild-type HBD-3: three-fold

## L-α-phosphatidic acid [PA]
U937 cells [5]
  reduced PI-positivity (inhibition of HBD-3 mediated PI uptake by lipid): enhanced permeabilisation

## L-α-phosphatidylcholine [PC]
U937 cells [5]
  reduced PI-positivity (inhibition of HBD-3 mediated PI uptake by lipid): did not show any significant inhibition

## L-α-phosphatidylethanolamine [PE]
U937 cells [5]
  reduced PI-positivity (inhibition of HBD-3 mediated PI uptake by lipid): did not show any significant inhibition

## L-α-phosphatidylinositol-3,4,5-trisphosphate [PI(3,4,5)P3]
U937 cells [5]
  reduced PI-positivity (inhibition of HBD-3 mediated PI uptake by lipid): 100%

## L-α-phosphatidylinositol-3,5-bisphosphate [PI(3,5)P2]
U937 cells [5]
  reduced PI-positivity (inhibition of HBD-3 mediated PI uptake by lipid): did not show any significant inhibition

## L-α-phosphatidylinositol-4,5-bisphosphate [PI(4,5)P2]
U937 cells [5]
  reduced PI-positivity (inhibition of HBD-3 mediated PI uptake by lipid): ~50%

## L-α-phosphatidylinositol-4-phosphate [PI(4)P]
U937 cells [5]
  reduced PI-positivity (inhibition of HBD-3 mediated PI uptake by lipid): did not show any significant inhibition

## L-α-phosphatidylserine [PS]
U937 cells [5]
  reduced PI-positivity (inhibition of HBD-3 mediated PI uptake by lipid): ~15%

## LL-37: another CAP that exhibits non-PI(4,5)P2-dependent detergent-like and/or pore-forming membrane disruption (LLGDFFRKSKEKIGKEFKRIVQRIKDFLRNLVPRTES; Antibacterial peptide LL-37; UniProt P49913 134-170, looked up) [reference compound]
U937 cells [6]
  susceptibility of neomycin pre-incubated cells to permeabilisation compared to untreated control: not

## Nicotiana alata defensin 1 (RECKTESNTFPGICITKPPCRKACISEKFTDGHCSKILRRCLCTKPC; UniProt Q8GTM0 26-72, looked up) [NaD1]
Tumour cells
  concentrations selectively killing a broad spectrum of tumour cells: low micromolar concentrations
